Experimental data reported in patent publication US9765018B2, “IDO inhibitors” (BRISTOL-MYERS SQUIBB COMPANY, priority 2013, dated 2017).
pIC50: −log10 of the molar value.

Target: IDO (Homo sapiens (Human), UniProt P14902)
Test: Kynurenine assay in IFN-γ-stimulated Hela cells
Type: cell-based
Conditions: 20 h, read-out: Hela Kyurenine (IC50)
Procedure: Reagents: Hela cells (ATCC, CCL-2)
IFNg (R&D, 28-IF-100)—resuspend at 10 ug/mL in PBS with 0.1% BSA 30% TCA
Ehrlich reagent (2% w/v p-dimethylaminobenzaldehyde in glacial acetic acid)
Cell Lines and Culture Conditions
Hela cancer cell lines were acquired from the American Type Culture Collection. Cells were maintained in phenol red free-RPMI1640 medium containing high glucose and L-glutamine (Invitrogen) supplemented with 10% fetal bovine serum (FBS; Invitrogen). Cell cultures were incubated at 37° C., 5% CO2, and 100% humidity.
Cell Treatment and Kynurenine Assay
Hela cells were seeded on 96-well plates (40,000 cells per well) and allowed to adhere for 5-6 hours. Cells were then treated with vehicle (DMSO) or with IDO inhibitor at a top dose of 30 μM (3-fold dilution all the way down to 1.5 nM). A final concentration of 100 ng/mL of human recombinant IFN-γ (R&D, 28-IF-100) was immediately added to the cells to stimulate IDO expression. Treated cells were then incubated for 20 hours at 37° C. At the end of the 20 h incubation, reactions were terminated by the addition of 30% TCA to each well. Plates were incubated for 30 minutes at 50° C. to hydrolyze N-formylkynurenine to kynurenine. Cells were centrifuged 10 minutes at 2400 rpm. 100 ul of supernatants were transferred to new 96 flat well plates and mixed with 100 ul Ehrlich reagent. The resulting solution was incubated 10 minutes at RT. Absorbance at 490 nm was read using Spectra Max 384 (Molecular Devices).

IDO, sequence (P14902 whole entry): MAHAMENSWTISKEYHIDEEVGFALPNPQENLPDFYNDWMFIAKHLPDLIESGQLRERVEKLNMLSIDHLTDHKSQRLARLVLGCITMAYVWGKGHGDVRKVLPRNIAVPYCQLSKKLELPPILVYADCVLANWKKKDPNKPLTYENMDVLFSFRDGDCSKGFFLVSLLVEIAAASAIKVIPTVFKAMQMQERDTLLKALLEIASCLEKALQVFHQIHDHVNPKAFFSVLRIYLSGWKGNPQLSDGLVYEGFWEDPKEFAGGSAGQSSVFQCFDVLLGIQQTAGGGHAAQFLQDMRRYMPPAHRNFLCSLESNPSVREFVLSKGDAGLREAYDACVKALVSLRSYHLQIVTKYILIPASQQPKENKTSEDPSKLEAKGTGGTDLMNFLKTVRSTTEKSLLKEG

SMILES | pIC50
O=C(Nc1ccc(C(F)(F)F)cc1)Nc1cc(-c2ccc(C(=O)O)c(Cl)c2)ccc1Oc1ccccc1C(F)(F)F [Example 207, 3-chloro-4′-(2-(trifluoromethyl)phenoxy)-3′-(3-(4-(trifluoromethyl)phenyl)ureido) biphenyl-4-carboxylic acid] | 5.91
O=C(Nc1ccc(OC(F)(F)F)cc1)Nc1cc(-c2cc(Cl)cc(C(=O)O)c2)ccc1Oc1ccccc1Cl [Example 260, 5-chloro-4′-(2-chlorophenoxy)-3′-(3-(4-(trifluoromethoxy)phenyl)ureido)biphenyl-3-carboxylic acid] | 5.25
COc1cc(-c2ccc(Oc3ccccc3C(C)(C)C)c(NC(=O)Nc3cccc(C)c3)c2)ccc1C(=O)O [Example 212, 4′-(2-tert-butylphenoxy)-3-methoxy-3′-(3-m-tolylureido) biphenyl-4-carboxylic acid] | 5.97
CC(C)(C)c1ccccc1Oc1ccc(-c2ccc(C(=O)O)c(F)c2)cc1NC(=O)Nc1ccccc1Cl [Example 217, 4′-(2-tert-butylphenoxy)-3′-(3-(2-chlorophenyl)ureido)-3-fluorobiphenyl-4-carboxylic acid] | 5.90
COc1ccc(-c2ccc(Oc3ccccc3Cl)c(NC(=O)Nc3ccccc3C)c2)cc1C(=O)O [Example 53, 4′-(2-chlorophenoxy)-4-methoxy-3′-(3-o-tolylureido)biphenyl-3-carboxylic acid] | 5.66
COc1ccc(-c2ccc(O[C@@H]3CCCC[C@H]3C)c(NC(=O)Nc3ccccc3C)c2)cc1C(=O)O (relative stereo) [Example 137, 4-methoxy-4′-((trans)-2-methylcyclohexyloxy)-3′-(3-o-tolylureido)biphenyl-3-carboxylic acid] | 5.61
CC(C)(C)c1ccccc1Oc1ccc(-c2cccc(C(=O)O)c2)cc1NC(=O)Nc1ccccc1 [Example 234, 4′-(2-tert-butylphenoxy)-3′-(3-phenylureido) biphenyl-3-carboxylic acid] | 5.73
CC(C)(C)c1ccccc1Oc1ccc(-c2cc(F)cc(C(=O)O)c2)cc1NC(=O)Nc1ccccc1Cl [Example 253, 4′-(2-tert-butylphenoxy)-3′-(3-(2-chlorophenyl)ureido)-5-fluorobiphenyl-3-carboxylic acid] | 5.96
CC(C)(C)c1ccccc1Oc1ccc(-c2cc(F)cc(C(=O)O)c2)cc1NC(=O)Nc1ccc(OC(F)(F)F)cc1 [Example 222, 4′-(2-tert-butylphenoxy)-5-fluoro-3′-(3-(4-(trifluoromethoxy)phenyl)ureido) biphenyl-3-carboxylic acid] | 5.79
CC(C)(C)c1ccccc1Oc1ccc(-c2ccc(C(=O)O)cc2)cc1NC(=O)Nc1ccccc1C(F)(F)F [Example 210, 4′-(2-tert-butylphenoxy)-3′-(3-(2-(trifluoromethyl)phenyl)ureido) biphenyl-4-carboxylic acid] | 5.81
O=C(Nc1cc(-c2cc(Cl)cc(C(=O)O)c2)ccc1Oc1ccccc1)Nc1ccccc1C(F)(F)F [Example 250, 5-chloro-4′-phenoxy-3′-(3-(2-(trifluoromethyl)phenyl)ureido) biphenyl-3-carboxylic acid] | 5.97
Cc1ccc(NC(=O)Nc2cc(-c3cccc(C(=O)O)c3)ccc2Oc2ccc(Cl)cc2)cc1 [Example 248, 4′-(4-chlorophenoxy)-3′-(3-p-tolylureido) biphenyl-3-carboxylic acid] | 5.83
Cc1ccccc1NC(=O)Nc1cc(-c2ccc(C(=O)O)c(Cl)c2)ccc1Oc1ccccc1C(C)(C)C [Example 216, 4′-(2-tert-butylphenoxy)-3-chloro-3′-(3-o-tolylureido) biphenyl-4-carboxylic acid] | 5.96
Cc1cccc(NC(=O)Nc2cc(-c3ccc(C(=O)O)c(Cl)c3)ccc2Oc2ccccc2C(F)(F)F)c1 [Example 204, 3-chloro-3′-(3-m-tolylureido)-4′-(2-(trifluoromethyl)phenoxy)biphenyl-4-carboxylic acid] | 5.90

Stronger by pIC50, values ahead:

pIC50 | SMILES
6.05 | COc1ccc(-c2ccc(Oc3ccccc3Cl)c(NC(=O)Nc3cccc(C)c3)c2)cc1C(=O)O [Example 50, 4′-(2-chlorophenoxy)-4-methoxy-3′-(3-m-tolylureido)biphenyl-3-carboxylic acid]
6.13 | Cc1cccc(NC(=O)Nc2cc(-c3cc(F)cc(C(=O)O)c3)ccc2Oc2ccccc2C(C)(C)C)c1 [Example 251, 4′-(2-tert-butylphenoxy)-5-fluoro-3′-(3-m-tolylureido) biphenyl-3-carboxylic acid]
6.14 | Cc1ccc(NC(=O)Nc2cc(-c3ccccc3C(=O)NS(C)(=O)=O)ccc2Oc2ccccc2C(C)(C)C)cc1 [Example 6, 4′-(2-tert-Butylphenoxy)-N-(methylsulfonyl)-3′-(3-p-tolylureido)biphenyl-2-carboxamide]
6.14 | COc1ccc(-c2ccc(Oc3ccccc3C(C)(C)C)c(NC(=O)Nc3cccc(C#N)c3)c2)cc1C(=O)O [Example 108, 4′-(2-(tert-butyl)phenoxy)-3′-(3-(3-cyanophenyl)ureido)-4-methoxy-[1,1′-biphenyl]-3-carboxylic acid]
6.31 | COc1ccccc1Oc1ccc(-c2ccc(OC)c(C(=O)O)c2)cc1NC(=O)Nc1ccccc1Cl [Example 68, 3′-(3-(2-chlorophenyl)ureido)-4-methoxy-4′-(2-methoxyphenoxy)biphenyl-3-carboxylic acid]
6.33 | COc1ccc(-c2ccc(Oc3ccccc3C(C)(C)C)c(NC(=O)Nc3ccc(C)cc3F)c2)cc1C(=O)O [Example 100, 4′-(2-(tert-butyl)phenoxy)-3′-(3-(2-fluoro-4-methylphenyl)ureido)-4-methoxy-[1,1′-biphenyl]-3-carboxylic acid]
6.35 | CC(C)(C)c1ccccc1Oc1ccc(-c2ccccc2C(=O)O)cc1NC(=O)Nc1ccccc1Cl [Example 155, 4′-(2-tert-butylphenoxy)-3′-(3-(2-chlorophenyl)ureido)biphenyl-2-carboxylic acid]
6.38 | CC(C)(C)c1ccccc1Oc1ccc(-c2cc(C(=O)O)ccc2F)cc1NC(=O)Nc1ccc(OC(F)(F)F)cc1 [Example 261, 4′-(2-tert-butylphenoxy)-6-fluoro-3′-(3-(4-(trifluoromethoxy)phenyl)ureido) biphenyl-3-carboxylic acid]
6.38 | CC(C)(C)c1ccccc1Oc1ccc(-c2cccc(C(=O)O)c2)cc1NC(=O)Nc1ccccc1Cl [Example 228, 4′-(2-tert-butylphenoxy)-3′-(3-(2-chlorophenyl)ureido)biphenyl-3-carboxylic acid]
6.41 | COc1ccc(-c2ccc(Oc3ccccc3C)c(NC(=O)Nc3cccc(C)c3)c2)cc1C(=O)O [Example 70, 4-methoxy-4′-(o-tolyloxy)-3′-(3-m-tolylureido)biphenyl-3-carboxylic acid]
6.43 | COc1ccc(-c2ccc(Oc3ccccc3C(C)(C)C)c(NC(=O)Nc3ccc(Cl)c(Cl)c3)c2)cc1C(=O)O [Example 105, 4′-(2-(tert-butyl)phenoxy)-3′-(3-(3,4-dichlorophenyl)ureido)-4-methoxy-[1,1′-biphenyl]-3-carboxylic acid]
6.55 | COc1ccc(NC(=O)Nc2cc(-c3ccc(OC)c(C(=O)O)c3)ccc2Oc2ccccc2C(C)(C)C)cc1 [Example 87, 4′-(2-(tert-butyl)phenoxy)-3′-(3-(4-methoxyphenyl)ureido)-4-methoxy-[1,1′-biphenyl]-3-carboxylic acid]
6.82 | CC(C)(C)c1ccccc1Oc1ccc(-c2ccc(C(=O)O)c(Cl)c2)cc1NC(=O)Nc1ccccc1C(F)(F)F [Example 214, 4′-(2-tert-butylphenoxy)-3-chloro-3′-(3-(2-(trifluoromethyl)phenyl)ureido) biphenyl-4-carboxylic acid]
6.89 | COc1ccc(-c2ccc(Oc3ccccc3C(C)(C)C)c(NC(=O)NC(C)(C)C)c2)cc1C(=O)O [Example 88, 4′-(2-(tert-butyl)phenoxy)-3′-(3-(tert-butyl)ureido)-4-methoxy-[1,1′-biphenyl]-3-carboxylic acid]
6.89 | CCc1ccccc1Oc1ccc(-c2ccc(OC)c(C(=O)O)c2)cc1NC(=O)Nc1ccccc1C [Example 56, 4′-(2-ethylphenoxy)-4-methoxy-3′-(3-o-tolylureido)biphenyl-3-carboxylic acid]
6.92 | CCCNC(=O)Nc1cc(-c2ccc(OC)c(C(=O)O)c2)ccc1Oc1ccccc1C(C)(C)C [Example 89, 4′-(2-(tert-butyl)phenoxy)-3′-(3-(n-propyl)ureido)-4-methoxy-[1,1′-biphenyl]-3-carboxylic acid]
6.96 | COc1ccc(-c2ccc(Oc3ccccc3C(C)(C)C)c(NC(=O)Nc3cccc(Cl)c3)c2)cc1C(=O)O [Example 85, 4′-(2-(tert-butyl)phenoxy)-3′-(3-(3-chlorophenyl)ureido)-4-methoxy-[1,1′-biphenyl]-3-carboxylic acid]
7.00 | COc1ccc(-c2ccc(Oc3ccccc3C(C)(C)C)c(NC(=O)Nc3cc(Cl)ccc3Cl)c2)cc1C(=O)O [Example 104, 4′-(2-(tert-butyl)phenoxy)-3′-(3-(2,5-dichlorophenyl)ureido)-4-methoxy-[1,1′-biphenyl]-3-carboxylic acid]
